# According to patent US20100041089A1, “IMPROVED METHOD FOR DETECTING CHEMICAL […]” (priority 2006, published 2010):
# Tested on: yeast genes (expressed mRNA)
# Assay: DNA chip measurement of expressed mRNA of yeast genes after culture with a toxic chemical substance
# Type: cell-based, Saccharomyces cerevisiae S288C
# Experimental: Yeast (Saccharomyces cerevisiae S288C (a SUC2mal mel gap2 CUP1)) were cultured at 25° C. on YPD medium (yeast extract 1%, polypeptone 2%, glucose 2%). One of toxic chemical substances was added to the cell at logarithmic growth phase, and the cell was further cultured for two hours. Cell was cultured without any chemical substance in the same condition, and was used as a control. Concentrations of the chemical substances were defined to inhibit the growth of the yeast but not lead to death.
# After the completion of cultivation, the culture was centrifuged to collect the cells. To the cells, sodium acetate buffer (50 mM sodium acetate, 10 mM EDTA, 1% SDS) was added, and the mixture was shaken at 65° C. for five minutes, followed by returning to room temperature, and obtaining the supernatant, which procedure was repeated two times. To the supernatant, ½ amount of a solution of phenol/chloroform (1:1) was added, and the mixture was centrifuged to give a supernatant, an equal amount of chloroform was added, and the mixture was centrifuged to give a supernatant. To the supernatant, an equal amount of isopropanol containing 0.3 M sodium acetate was added, and the mixture was allowed to stand at room temperature for 30 minutes, after which the mixture was centrifuged to give sediment of the whole RNAs. Seventy % ethanol was added to the sediment, and the mixture was again centrifuged to give sediment, which was then dried and dissolved in water. mRNA was isolated from the whole RNAs as followings. In view of the fact that a poly A chain is attached to the 3′ terminus of mRNA, a polynucleotide having a poly T structure which was immobilized on the surface of latex beads was used to trap the mRNA, and then the mRNA was washed and eluted with spine column (Oligotex-dT30<Super>mRNA Purification Kit, Takara). Reverse transcription of the mRNA was conducted with a reverse transcriptase (Super Script II Reverse Transcriptase; catalogue No. 18064-014, GibcoBRL) using fluorescence-labeled nucleotides to give cDNAs that were introduced with Cy3-dUTP or Cy5-dUTP during the reverse transcription.
# The labeled cDNAs were dissolved in TE buffer (10 mM Tris-HCl/1 mM EDTA, pH 8.0), and the solution was dropped on the DNA chip containing the whole genes of yeast (DNA Chip Research Inc. Japan) so that the cDNAs were hybridized on the DNA chip at 65° C. for over 12 hours. The fluoresces intensity of the DNA chip was read with a scanner, and the ratio relative to the fluorescence intensity resulting from the absence of chemical substance was estimated as the following, which is shown in Tables 1 to 9.
# In the Tables, “Intensity” indicated in the rightmost column is a value of the level of expressed mRNA of each gene in control cells as divided by the average level of the expressions of the whole genes. A gene of which mRNA level is lower in control, and is higher in cases of addition of chemical substance, is especially useful in the detection of toxic substances.
# Here, when a ratio of an amount of mRNA expressed in the presence of the chemical substance to an amount of mRNA expressed in the absence of the chemical substance is two or more, then it is considered significant.
structure (smiles),measurement,setting,value
"COc1cc(CNC(=O)CCCCC=CC(C)C)ccc1O [(12), 8-Methyl-N-vanillyl-6-nonenamide]",The level of expressed mRNA in the presence of chemical substance/The level of expressed mRNA in the absence of chemical substance,"yeast gene YNL092W, cultured two hours with substance",1.1
same,The level of expressed mRNA in the presence of chemical substance/The level of expressed mRNA in the absence of chemical substance,"yeast gene YNL104C, metabolism protein genes",1.1
same,The level of expressed mRNA in the presence of chemical substance/The level of expressed mRNA in the absence of chemical substance,"yeast gene YNL115C, cultured two hours with substance",0.8
same,The level of expressed mRNA in the presence of chemical substance/The level of expressed mRNA in the absence of chemical substance,"yeast gene YNL156C, cultured two hours with substance",0.9
same,The level of expressed mRNA in the presence of chemical substance/The level of expressed mRNA in the absence of chemical substance,yeast gene YNL169C,1.0
same,The level of expressed mRNA in the presence of chemical substance/The level of expressed mRNA in the absence of chemical substance,"yeast gene YNL190W, cultured two hours with substance",1.0
same,The level of expressed mRNA in the presence of chemical substance/The level of expressed mRNA in the absence of chemical substance,"yeast gene YNL208W, cultured two hours with substance",0.8
same,The level of expressed mRNA in the presence of chemical substance/The level of expressed mRNA in the absence of chemical substance,"yeast gene YNL211C, cultured two hours with substance",3.2
same,The level of expressed mRNA in the presence of chemical substance/The level of expressed mRNA in the absence of chemical substance,"yeast gene YNL234W, cultured two hours with substance",1.1
same,The level of expressed mRNA in the presence of chemical substance/The level of expressed mRNA in the absence of chemical substance,yeast gene YNL241C (stress protein genes),2.0
same,The level of expressed mRNA in the presence of chemical substance/The level of expressed mRNA in the absence of chemical substance,"yeast gene YNL281W, cultured two hours with substance",0.7
same,The level of expressed mRNA in the presence of chemical substance/The level of expressed mRNA in the absence of chemical substance,"yeast gene YNL300W, cultured two hours with substance",0.8
same,The level of expressed mRNA in the presence of chemical substance/The level of expressed mRNA in the absence of chemical substance,"yeast gene YNL305C, cultured two hours with substance",1.1
same,The level of expressed mRNA in the presence of chemical substance/The level of expressed mRNA in the absence of chemical substance,yeast gene YNL331C,0.9
same,The level of expressed mRNA in the presence of chemical substance/The level of expressed mRNA in the absence of chemical substance,"yeast gene YNR033W, metabolism protein genes",1.1
same,The level of expressed mRNA in the presence of chemical substance/The level of expressed mRNA in the absence of chemical substance,"yeast gene YNR064C, cultured two hours with substance",0.7
same,The level of expressed mRNA in the presence of chemical substance/The level of expressed mRNA in the absence of chemical substance,"yeast gene YNR068C, cultured two hours with substance",1.3
same,The level of expressed mRNA in the presence of chemical substance/The level of expressed mRNA in the absence of chemical substance,"yeast gene YOL031C, cultured two hours with substance",2.1
same,The level of expressed mRNA in the presence of chemical substance/The level of expressed mRNA in the absence of chemical substance,"yeast gene YOL032W, cultured two hours with substance",1.0
same,The level of expressed mRNA in the presence of chemical substance/The level of expressed mRNA in the absence of chemical substance,"yeast gene YOL036W, cultured two hours with substance",1.0
same,The level of expressed mRNA in the presence of chemical substance/The level of expressed mRNA in the absence of chemical substance,"yeast gene YOL047C, cultured two hours with substance",0.8
same,The level of expressed mRNA in the presence of chemical substance/The level of expressed mRNA in the absence of chemical substance,yeast gene YOL058W,1.3
same,The level of expressed mRNA in the presence of chemical substance/The level of expressed mRNA in the absence of chemical substance,yeast gene YOL064C (stress protein genes),0.9
same,The level of expressed mRNA in the presence of chemical substance/The level of expressed mRNA in the absence of chemical substance,"yeast gene YOL071W, cultured two hours with substance",1.0
same,The level of expressed mRNA in the presence of chemical substance/The level of expressed mRNA in the absence of chemical substance,"yeast gene YOL082W, cultured two hours with substance",1.0
same,The level of expressed mRNA in the presence of chemical substance/The level of expressed mRNA in the absence of chemical substance,"yeast gene YOL083W, cultured two hours with substance",1.2
same,The level of expressed mRNA in the presence of chemical substance/The level of expressed mRNA in the absence of chemical substance,"yeast gene YOL117W, cultured two hours with substance",0.9
same,The level of expressed mRNA in the presence of chemical substance/The level of expressed mRNA in the absence of chemical substance,"yeast gene YOL126C, metabolism protein genes",1.1
same,The level of expressed mRNA in the presence of chemical substance/The level of expressed mRNA in the absence of chemical substance,"yeast gene YOL131W, cultured two hours with substance",0.9
same,The level of expressed mRNA in the presence of chemical substance/The level of expressed mRNA in the absence of chemical substance,"yeast gene YOL150C, cultured two hours with substance",2.9
same,The level of expressed mRNA in the presence of chemical substance/The level of expressed mRNA in the absence of chemical substance,"yeast gene YOL162W, cultured two hours with substance",1.4
same,The level of expressed mRNA in the presence of chemical substance/The level of expressed mRNA in the absence of chemical substance,"yeast gene YOR019W, cultured two hours with substance",1.0
same,The level of expressed mRNA in the presence of chemical substance/The level of expressed mRNA in the absence of chemical substance,"yeast gene YOR049C, cultured two hours with substance",6.7
same,The level of expressed mRNA in the presence of chemical substance/The level of expressed mRNA in the absence of chemical substance,"yeast gene YOR099W, metabolism protein genes",1.1
same,The level of expressed mRNA in the presence of chemical substance/The level of expressed mRNA in the absence of chemical substance,"yeast gene YOR130C, metabolism protein genes",0.9
same,The level of expressed mRNA in the presence of chemical substance/The level of expressed mRNA in the absence of chemical substance,"yeast gene YOR197W, cultured two hours with substance",1.0
same,The level of expressed mRNA in the presence of chemical substance/The level of expressed mRNA in the absence of chemical substance,"yeast gene YOR248W, cultured two hours with substance",0.5
same,The level of expressed mRNA in the presence of chemical substance/The level of expressed mRNA in the absence of chemical substance,"yeast gene YOR336W, metabolism protein genes",1.0
same,The level of expressed mRNA in the presence of chemical substance/The level of expressed mRNA in the absence of chemical substance,"yeast gene YOR382W, cultured two hours with substance",2.8
same,The level of expressed mRNA in the presence of chemical substance/The level of expressed mRNA in the absence of chemical substance,"yeast gene YPL017C, metabolism protein genes",1.0
same,The level of expressed mRNA in the presence of chemical substance/The level of expressed mRNA in the absence of chemical substance,"yeast gene YPL052W, cultured two hours with substance",1.1
same,The level of expressed mRNA in the presence of chemical substance/The level of expressed mRNA in the absence of chemical substance,"yeast gene YPL087W, cultured two hours with substance",1.8
same,The level of expressed mRNA in the presence of chemical substance/The level of expressed mRNA in the absence of chemical substance,yeast gene YPL194W (stress protein genes),0.9
same,The level of expressed mRNA in the presence of chemical substance/The level of expressed mRNA in the absence of chemical substance,"yeast gene YPL196W, cultured two hours with substance",0.9
same,The level of expressed mRNA in the presence of chemical substance/The level of expressed mRNA in the absence of chemical substance,"yeast gene YPL206C, cultured two hours with substance",0.8
same,The level of expressed mRNA in the presence of chemical substance/The level of expressed mRNA in the absence of chemical substance,"yeast gene YPL222W, cultured two hours with substance",1.3
same,The level of expressed mRNA in the presence of chemical substance/The level of expressed mRNA in the absence of chemical substance,"yeast gene YPR023C, cultured two hours with substance",0.9
same,The level of expressed mRNA in the presence of chemical substance/The level of expressed mRNA in the absence of chemical substance,"yeast gene YPR079W, cultured two hours with substance",1.0
same,The level of expressed mRNA in the presence of chemical substance/The level of expressed mRNA in the absence of chemical substance,"yeast gene YPR151C, cultured two hours with substance",0.9
same,The level of expressed mRNA in the presence of chemical substance/The level of expressed mRNA in the absence of chemical substance,yeast gene YPR167C,1.3
